Source: patent publication US20160089410A1, “COMPOSITION FOR NOURISHING INJURED HUMAN TROPHOBLAST CELLS AND INHIBITING APOPTOSIS THEREIN” (priority 2014, published 2016)
Marks after values point to notes of the source that are not given here.

Experiments:
Assay type in all cases: cell-based, human
β-HCG = test: Radioimmunoassay on HCG expression in cell supernatant; conditions: mifepristone induced model; duration of treatment 48 h
Method: (§1) Hyperoside and asperosaponin are individual compounds isolated from herbal medicines cuscuta chinensis and taxillus sutchuenensis, respectively. Progesterone is a compound often used to prevent spontaneous abortion and was used in present invention as positive treatment control for comparison with of the novel composition of the present invention.
The cells (4×10^5 cells/ml) were seeded in the 6-well plate, 1 ml per well, and incubated at 37° C., 5% CO2 for 48 hours. Then, the cells were grouped and treated accordingly (see above). After 48 hour treatment, cell supernatants were collected and sent to the Department of Nuclear Medicine, Guangzhou University of Traditional Chinese Medicine, for measuring HCG (human chorionic gonadotropin) via a routine radioimmunoassay procedure.

Bcl-2 mRNA/Bax mRNA = test: Quantitative PCR assay, Bcl-2 mRNA/Bax mRNA ratio; conditions: ΔΔCt, mifepristone induced model, time point not given
Text: as §1
(§2) Design of primers: Based on search for the sequence of the target gene mRNA in GenBank, the following primers were designed: […]
(§3) Total RNA extraction: Cells 4×10^5 cells/ml were seeded in the 6-well plate, 1 ml per well, and incubated at 37° C., 5% CO2 for 48 h. Then, the cells were grouped and treated according to the experiment scheme (see above). Extraction was conducted at two time points: 24 h and 24-24 h (24 hours of agent treatment and 24 hours after removing the agent), according to the procedures described as follows:
(§4) Placed the cells in the 1.5 ml EP tube, add Trizol 1 ml, and mix by shaking. Add chloroform 0.2 ml, cover tightly, and shake vigorously for 15 s. Store it at 4° C. for 2-3 min, centrifugal at 4° C., 12000 rpm×15 min. Transfer the supernatant to a new 1.5 ml EP tube, add an equal volume of isopropanol, incubate at 4° C. for 10 min, and centrifuge 4° C., 12000 rpm×10 min. After discarding the supernatant, add 75% ethanol (containing DEPC water) to wash the precipitate once, centrifugal 4° C. 7500 rpm×5 min, and discard ethanol. Air or vacuum dry for 5-10 min (not completely dry), add DEPC water to dissolve RNA, store at −80° C. for further process.
(§5) Reverse transcription: In a sterile 0.2 ml centrifuge tubes, prepare the reaction according to the following:
(§6) Quantitative PCR:experimental design is in accordance with standard ΔΔCt analytical method. The experimental procedure is as follows:
(§7) (2) Prepare reaction mix (performed on ice):
(§8) (3) PCR reaction: using a standard three-step reaction procedure: […]

XIAP = test: Western blot assay on XIAP expression in trophoblastic cells; conditions: mifepristone induced model, Blank = 1.000
Method: as §1
(§9) Extraction of total cellular protein and cytoplasmic protein: The cells 4×10^5 cells/ml were seeded in the 6-well plate. After incubating at 37° C., 5% CO2 for 44 hours, the cells are grouped and treated according to the experiment scheme (see above). Extraction conducted at two treatment points: 24-24 h (treat with agent for 24 hours and continue incubation for 24 hours after removing the agent) and 24-48 h (treat with agent for 24 hours and continue incubation for 48 hours after removing the agent). The assays were conducted as follows:
(§10) At each predetermined time point, discard the culture medium, wash the cells three times with cold PBS solution, 3 min each time. After removing PBS, put the cells on ice. Add lysis buffer, 150 μl per well, and then place the cells on ice for 5 min, scrape the surface cells and transfer the cell lysate to an EP tube. Put the tube on ice for 30 min. After centrifuge (4° C., 12000 rpm/min, 15 min), transfer the supernatant to the EP tube and store it at −20° C. Determine the protein concentration with the BCA method and adjust the protein concentration to the same level. Add 3 μl 5× SDS-PAGE sampling buffer, denature at 100° C. for 5 min, and store the samples at −20° C. for Western Blotting. The Western Blotting procedure was conducted in a standard manner known in the art, description of which is omitted herewith for the sake of brevity.

Bcl-2 mRNA = test: Quantitative PCR assay on Bcl-2 mRNA; conditions: ΔΔCt, mifepristone induced model, time point not given
Text: as §1, §2, §3, §4, §5, §6, §7, §8

trophoblast cells [1] = test: Annexin V/PI flow cytometry assay on early stage apoptosis in Mifepristone-Trophoblast Cell Model; conditions: comparative study, mifepristone induced model
Method: For example, the effect of apoptotic mRNA expressions in trophoblastic cells treated by mifepristone for 24 hours is shown in FIG. 3.
The experimental data on the cell proliferation rate, early apoptosis rate, Caspase-3 protein expression and cell supernatants HCG level expression were then subject to stepwise regression analysis, canonical correlation analysis and result optimization analysis. From these analyses, it is concluded that the preferred ratio among X1:X2:X3:X4:X5 is 0.9:0.00342:0.09037:0.0795:0. […] The number means the percentage of the cells underwent apoptosis.
as §1
The cells 4×10^5 cells/ml were seeded in the 6-well plate, 1 ml per well and incubated at 37° C., 5% CO2 for 48 h. Then, the cells were grouped and treated accordingly (see above). The assays were conducted as follows:
At the end of the predetermined treatment, the cells were digested and spun down(2000 rpm×5 min centrifugation). Discard the medium, wash the cells twice with cold PBS (resuspension and then 2000 rpm×5 min centrifugation). Remove the supernatant and resuspend the cell in 400 μl 1×Annexin V binding solution. Then, add 5 μl AnnexinV-EGFP staining solution to the cell suspension and mix gently. Incubate the cells at 2-8° C. in dark for 15 minutes. Add 10 μl PI (propidium iodide) and mix gently and incubate the cells in dark at 2-8° C. for 5 min. Detection by flow cytometry was conducted within one hour. The detection was repeated three times.

BcI-2/Bax = test: Western blot assay on Bcl-2/Bax expression ratio in trophoblastic cells; conditions: mifepristone induced model, Blank = 1.000
Method: Hyperoside and asperosaponin are individual compounds isolated from herbal medicines cuscuta chinensis and taxillus sutchuenensis, respectively.
as §9, §10

XIAP mRNA = test: Quantitative PCR assay on XIAP mRNA; conditions: ΔΔCt, mifepristone induced model, time point not given
Text: as §1, §2, §3, §4, §5, §6, §7, §8

Caspase-3 mRNA = test: Quantitative PCR assay on Caspase-3 mRNA; conditions: ΔΔCt, mifepristone induced model, time point not given
Text: as §1, §2, §3, §4, §5, §6, §7, §8

Bax = test: Western blot assay on Bax expression in trophoblastic cells; conditions: mifepristone induced model, Blank = 1.000
Method: as §1, §9, §10

Bax mRNA = test: Quantitative PCR assay on Bax mRNA; conditions: ΔΔCt, mifepristone induced model, time point not given
Text: as §1, §2, §3, §4, §5, §6, §7, §8

Caspase-3 = test: Western blot assay on Caspase-3 expression in trophoblastic cells; conditions: mifepristone induced model, Blank = 1.000
Method: as §1, §9, §10

Caspase-9 = test: Western blot assay on Caspase-9 expression in trophoblastic cells; conditions: mifepristone induced model, Blank = 1.000
Method: as §1, §9, §10

Caspase-9 mRNA = test: Quantitative PCR assay on Caspase-9 mRNA; conditions: ΔΔCt, mifepristone induced model, time point not given
Text: as §1, §2, §3, §4, §5, §6, §7, §8

trophoblast cells [2] = test: MTT assay on cell proliferation in mifepristone induced trophoblast model; conditions: Blank = 1.0000
Method: as §1
The trophoblast cells (adjust to 1.5×10^4/ml) were seeded in wells on a 96-well plate, […]. After incubating for 48 hours at 37° C., 5% CO2, the cells were grouped and treated accordingly (see above). Assays were conducted after treatment for 24 h and 48 h according to the following procedure:
Add 10 μl 1×MTT (3-(4,5-dimethylthiazol-2-yl)-2,5-diphenyltetrazolium bromide) to the well and continue incubation at 37° C., 5% CO2 for 4 hours to reduce MTT to formazan. Remove the supernatant from the well and add to each well 150 μl DMSO (dimethylsulfoxide) to dissolve formazan. After shaking the 96 plate for 10 min to make crystals completely dissolved, determine the OD value at 490 nm with a enzyme immunoassay analyzer. The determination was repeated three times.

Row | Compound | β-HCG level in cell supernatant (β-HCG) | Bcl-2 mRNA/BaxmRNA (Bcl-2 mRNA/Bax mRNA) | XIAP expression, relative amount of protein compared with Blank (XIAP; 24 h) | XIAP expression, relative amount of protein compared with Blank (XIAP; 48 h) | Bcl-2 mRNA level (Bcl-2 mRNA) | early stage apoptosis, percentage of cells underwent apoptosis (Annexin V FITC/PI) (trophoblast cells [1]; duration of treatment 24 h) | early stage apoptosis, percentage of cells underwent apoptosis (Annexin V FITC/PI) (trophoblast cells [1]; duration of treatment 48 h) [%] | BcI-2/Bax expression ratio, relative ratio of the proteins compared with Blank (BcI-2/Bax; 24 h) | BcI-2/Bax expression ratio, relative ratio of the proteins compared with Blank (BcI-2/Bax; 48 h) | XIAPmRNA level (XIAP mRNA) | Caspase-3 mRNA level (Caspase-3 mRNA) | Bax expression, relative amount of protein compared with Blank (Bax; 24 h) | Bax expression, relative amount of protein compared with Blank (Bax; 48 h) | BaxmRNA level (Bax mRNA) | Caspase-3 expression, relative amount of protein compared with Blank (Caspase-3; 24 h) | Caspase-3 expression, relative amount of protein compared with Blank (Caspase-3; 48 h) | Caspase-9 expression, relative amount of protein compared with Blank (Caspase-9; 24 h) | Caspase-9 mRNA level (Caspase-9 mRNA) | cell proliferation rate as compared to the Blank (MTT) (trophoblast cells [2]; duration of treatment 24 h) | cell proliferation rate as compared to the Blank (MTT) (trophoblast cells [2]; duration of treatment 48 h) | other results
1 | CC1(C)CC[C@]2(C(=O)O[C@@H]3O[C@H](CO[C@@H]4O[C@H](CO)[C@@H](O)[C@H](O)[C@H]4O)[C@@H](O)[C@H](O)[C@H]3O)CC[C@]3(C)C(=CC[C@@H]4[C@@]5(C)CC[C@H](O[C@@H]6OC[C@H](O)[C@H](O)[C@H]6O)[C@@](C)(CO)[C@@H]5CC[C@]43C)[C@@H]2C1 [Asperosaponin, asperosaponin] | 0.870 ± 0.026 MIU/ML | 1.88 ± 1.196 | 2.127 ± 0.421 | 1.706 ± 0.492 | 4.908 ± 3.037 | 16.067 ± 2.974 **^ΔΔ % | 15.933 ± 3.742 | 1.905 ± 0.297**^ΔΔ∇∇▴▴ | 1.503 ± 0.454 | 1.253 ± 1.540 | 2.783 ± 0.541 | 1.503 ± 0.180^ΔΔ▾▾ | 1.804 ± 0.558 | 3.181 ± 1.576 | 1.372 ± 0.338^Δ | 1.508 ± 0.217*^ΔΔ▴▴□ | 1.962 ± 0.273^Δ | 1.240 ± 0.945 | 0.787 ± 0.086 | 0.809 ± 0.019 | Caspase-9 expression, relative amount of protein compared with Blank (Caspase-9; 48 h): 1.887 ± 0.742
2 | CC(=O)[C@H]1CC[C@H]2[C@@H]3CCC4=CC(=O)CC[C@]4(C)[C@H]3CC[C@]12C [Positive Control, progesterone] | 1.067 ± 0.038*^Δ MIU/ML | 7.351 ± 6.001 |  |  | 2.971 ± 2.839 | 17.400 ± 1.229 **^ΔΔ % | 16.367 ± 1.447 | 0.537 ± 0.051 |  | 1.037 ± 0.425 | 3.089 ± 1.778^ΔΔ |  |  | 0.442 ± 0.442^ΔΔ |  |  |  | 1.286 ± 0.780 | 0.805 ± 0.030 | 0.825 ± 0.061 | 
3 | O=c1c(O[C@@H]2O[C@H](CO)[C@H](O)[C@H](O)[C@H]2O)c(-c2ccc(O)c(O)c2)oc2cc(O)cc(O)c12 [Hyperoside, hyperoside] | 1.377 ± 0.142 MIU/ML | 1.470 ± 1.321 | 1.528 ± 0.317 | 1.673 ± 0.768 | 2.726 ± 1.419 | 16.367 ± 1.942 **^ΔΔ % | 15.633 ± 2.136 | 1.544 ± 0.726^ΔΔ∇∇ | 0.518 ± 0.186 | 1.315 ± 0.706 | 4.640 ± 1.865^Δ | 1.687 ± 0.519*^ΔΔ▴▴▾▾ | 2.544 ± 0.383 | 2.469 ± 1.058^Δ | 1.847 ± 0.123 | 1.648 ± 0.206**^Δ▴ | 2.079 ± 0.267^Δ | 3.512 ± 3.828 | 0.788 ± 0.072 | 0.869 ± 0.029 | Caspase-9 expression, relative amount of protein compared with Blank (Caspase-9; 48 h): 2.221 ± 0.651
